Experimental data as given in PMC10350924, “Design, Synthesis, and Pharmacological Characterization of a Potent Soluble Epoxide Hydrolase Inhibitor for the Treatment of Acute Pancreatitis” (Journal of Medicinal Chemistry, 2023).

Tests used:
[1] = tested on: EETs, DHETs and HETEs in pancreas homogenates; test: Targeted metabololipidomics of pancreas homogenates (cerulein AP mice); format: in vivo; details: not statistically significant
Method: The extraction of targeted lipid mediators from pancreas was performed as follows: tissues were lyophilized and weighted, 10 mg was homogenized and deproteinized with 500 μL of ice-cold 10% v/v MeOH spiked with labeled standards, and subsequently diluted with 500 μL of phosphate-buffered saline (PBS). Samples were then loaded on solid-phase extraction cartridges, Strata-X reversed-phase SPE columns (100 mg/3 mL) (Phenomenex, Bologna, Italy). Cartridges were conditioned with 3 mL of MeOH and equilibrated with 3 mL of ddH2O. Following loading, washed with 1 mL of 10% MeOH v/v, and finally eluted with 1.5 mL of MeOH. Eluted samples were dried with a SpeedVac (Savant, Thermo Scientific, Milan, Italy) and dissolved prior to UHPLC-MS/MS analyses in 50 μL of UHPLC solvent A.
The analyses were acquired using a Shimadzu Nexera UHPLC (Kyoto, Japan) coupled online to a triple quadrupole LCMS-8050 (Shimadzu) equipped with an electrospray ionization (ESI) source operating in ESI negative mode. The separation was performed on a Kinetex EVO C18 150 mm × 2.1 mm, 2.6 μm (100 Å) (Phenomenex, Bologna, Italy). The flow rate was set to 0.4 mL/min, and the column oven was set at 40 °C. The mobile phases were, respectively: (A) ACN/H2O 45:55 acidified with 0.02% CH3COOH v/v and (B) ACN/IPA 50:50. The following gradient was used: 0 min, 0%B, 0–12 min 60%B, 12.10 min, 60–99%B, 12.10–13.05 isocratic to 99% B; returning to 0% B in 0.1. MS source parameters: desolvation Line (DL) 250 °C, interface: 300 °C, block heater 350 °C, nebulizing (N2), drying (N2), and heating (Air) gas pressures: 3, 10, 10 L/min. Each analyte was optimized by infusing standard solution at 0.2 mg/mL, multiple reaction monitoring (MRM) mode was used. Detailed MRM parameters are available in Table S3. […]

[2] = In vivo pharmacokinetic profile in mice after i.p. administration; details: mouse, plasma, ip, 10 mg/kg i.p., single dose
Method: For analysis of plasma levels of 28, mice (6 per group) received 10 mg/kg i.p. injection in a volume of 500 μL of DMSO 2% in saline. After selected time points, the mice were sacrificed (CO2 atmosphere) and blood (approximately 0.7–0.9 mL) was collected by intracardiac puncture using citrate as an anticoagulant. Then, plasma was obtained by centrifugation at 800g at 4 °C for 10 min and immediately frozen at −80 °C. The analyses were performed using a Shimadzu Nexera UHPLC (Kyoto, Japan) consisting of two LC-30AD pumps, a SIL-30AC autosampler, a CTO-20AC column oven, and a CBM-20A controller. Chromatographic conditions have previously been reported in the Chemical and Metabolic Stability section. The chromatographic system was coupled online to a triple quadrupole LCMS-8050 (Shimadzu) equipped with an electrospray ionization (ESI) source operating in positive mode. Quantification was performed in scheduled multiple reaction monitoring (MRM) mode. The transitions (Table S2) were m/z 456 > 149.2 (quantifier ion), 456 > 166.2 (qualifier ion) for compound 28, and m/z 458 > 149.2 (quantifier ion), 458 > 166.2 (qualifier ion) for IS. Dwell time, interface temperature, DL temperature, and heat block temperature were set to 100 ms, 300, 250, and 350 °C, respectively. Nebulizing gas, heating gas, and drying gas flow were set to 3, 10, and 10 L min^–1, respectively. All of the data was collected in the centroid mode and acquired and processed using Lab Solution workstation software. Stock solutions of 28 and IS were prepared in DMSO (1 mg mL^–1). The standards of 28 were prepared by dilution of the stock solution with methanol to obtain the working stock solutions in plasma of the following concentrations: 0.2, 0.5, 1, 5, 10, 20, and 50 ng mL^–1 for calibration curve. Calibration standards were prepared by spiking 100 μL of mouse plasma with a suitable working solution of 28 and IS to obtain a final concentration of 5 ng mL^–1 of the IS in each sample. For the extraction of 28 from mouse plasma, the method of protein precipitation was employed. Briefly, the frozen plasma samples were thawed at room temperature. 200 μL of ice-cold acetonitrile containing IS was added to 100 μL of plasma. The extraction was performed by vortex mixing for 5 min, followed by centrifugation for 10 min at 14,600 rpm at 25 °C. The supernatants were collected, filtered by […] RC-membranes, and then injected in UHPLC-MS/MS. […] The maximum concentration (Cmax) and time to reach Cmax (Tmax) were determined from the plasma concentration versus time data. The area under the plasma concentration–time curve from time 0 to infinity concentration (AUC0–∞) was determined using the linear trapezoidal method. The elimination half-life (T1/2) was calculated using ln(2)/ke.

For `CC(C)c1ccc(Cn2ccc3cc(NC(=O)NCC45C[C@H]6C[C@@H](C4)C[C@@H](C5)C6)ccc32)cc1` [Compound 28, 1-(((3R,5R,7R)-Adamantan-1-yl)methyl)-3-(1-(4-isopropylbenzyl)-1H-indol-5-yl)urea], the “change of DHET levels with respect to vehicle” value [1] was −31.5%, the “change of EETs levels with respect to vehicle” value [1] was “+21.9%” and the “change of HETEs levels (15-HETE, 12-HETE, 5-HETE) with respect to vehicle” value [1] was −13.4%. For the same compound, the AUC(0-inf) at 24 h [2] was 29.9 ng·h/mL, the Cmax at 24 h [2] was 4.17 ng/mL and the Tmax at 24 h [2] was 2 h. The half-life at 24 h [2] was 7.6 h.
